Laboratory results reported in patent US9200269B2, “β-glucuronidase inhibitor” (priority 2007, dated 2015).
Read-outs that look alike come from different tables or passages of the source.

Key:
[1] = target: T1, β-glucuronidase Type VII-A derived from Escherichia coli (Escherichia coli, UniProt P05804); test: Inhibition of β-glucuronidase activity (PNPG substrate, absorbance at 400 nm); assay type: biochemical; details: for Inhibition rate (%) Concentration 0.001%: 0.001 wt % in reaction solution
T1 construct: purchased Sigma-Aldrich Corporation
T1 sequence (P05804 whole entry): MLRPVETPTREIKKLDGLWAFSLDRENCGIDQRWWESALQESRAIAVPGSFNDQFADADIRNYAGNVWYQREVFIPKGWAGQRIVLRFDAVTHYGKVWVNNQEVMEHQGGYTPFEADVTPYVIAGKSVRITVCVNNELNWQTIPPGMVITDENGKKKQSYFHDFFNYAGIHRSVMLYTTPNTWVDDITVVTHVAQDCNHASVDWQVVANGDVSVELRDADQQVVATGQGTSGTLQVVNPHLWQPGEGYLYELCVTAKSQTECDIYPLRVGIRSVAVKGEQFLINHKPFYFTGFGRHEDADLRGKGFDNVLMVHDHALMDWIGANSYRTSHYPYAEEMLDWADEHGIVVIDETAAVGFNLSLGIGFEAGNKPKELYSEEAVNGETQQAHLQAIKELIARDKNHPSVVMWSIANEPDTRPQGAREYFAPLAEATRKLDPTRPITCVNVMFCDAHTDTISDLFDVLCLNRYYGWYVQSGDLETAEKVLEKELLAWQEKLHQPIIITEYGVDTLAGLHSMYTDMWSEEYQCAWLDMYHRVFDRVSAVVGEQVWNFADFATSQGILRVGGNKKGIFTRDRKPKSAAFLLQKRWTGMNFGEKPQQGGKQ
Protocol: 100 μL of a 2 mM PNPG aqueous solution, 40 μL of a 0.5 M phosphate buffer (pH 6.8), 38 μL of ion exchanged water and 2 μL of a 10 or 1 wt % dipropylene glycol (DPG) solution of various compounds or plant extracts were mixed in a bottle γ-ray sterilized in advance, and subsequently 20 μL of a β-glucuronidase aqueous solution adjusted to 16 units/mL was added, in order to allow the enzyme to react in a thermostat bath at 37° C. for 2 hours. Further, in the case of some of compounds, in addition to the above steps, the same experiment was performed using a 0.1 wt % DPG solution as well. As a result, the concentrations of the test compounds and plant extracts in the reaction solution were adjusted to 0.1, 0.01 and 0.001 wt %, respectively. Further, a product prepared by adding DPG in place of the above-mentioned compounds and plant extracts was used as a control, and a product prepared by adding ion exchanged water in place of an enzyme solution was used as a blank for each sample and control, and the respective products were allowed to react for 2 hours in the same manner. It should be noted that the plant extract sample was used as a solvent extract.
The above-mentioned reaction solution was diluted with a 0.2 M glycine buffer (pH 10.4) and measured for its absorbance at a wavelength of 400 nm. The relative activity inhibition rate of a β-glucuronidase was determined by using the obtained measurement value in accordance with the following equation. Absorbance change of control=Absorbance of control−Absorbance of blank for each control Absorbance change of sample=Absorbance of sample−Absorbance of blank for each sample Activity inhibition rate (%)=[(Absorbance change of control−Absorbance change of sample)/Absorbance change of control]×100

[2] = Urine catching pad urine addition test, urine odor intensity; parameters: species or system human; details: six-level score 0 to 5, average of five panelists; inhibitor 1 wt. % of water-absorbent polymer; 30 g human urine, 30° C.
Protocol: Sensory evaluation of odor was performed by six panelists, the evaluation was based on a six-level odor intensity indication method in which the odor intensity was indicated with an evaluation score of 0 to 5. In the evaluation score, “0” indicates no odor, “1” indicates odor which can be slightly perceived (detection threshold), “2” indicates odor which can be perceived to be urine odor but is weak (perception threshold), “3” indicates odor which can be easily perceived to be urine odor, “4” indicates strong urine odor, and “5” indicates extreme urine odor. The odor intensity was determined at an interval of 0.5.
Specifically, the urine catching pad was prepared by replacing only a water-absorbent polymer in the commercially available urine catching pad “Relief urine catching pad safe absorption (Anshin-Kyusyu)” (manufactured by Kao Corporation) with a water-absorbent polymer wherein the β-glucuronidase inhibitor of the present invention was added. The added amount of the inhibitor to the water-absorbent polymer was 1 wt. % with respect to the water-absorbent polymer, and was equivalent to 1.5 g/m^2 with respect to the urine catching pad.
A urine addition test was performed by using test pieces having dimensions of 19 cm by 7 cm being cut out from the urine catching pad, and using a test piece containing no β-glucuronidase inhibitor as a blank. The test was performed as follows: 30 g of human urine (a mixture of urine from five humans) were added to these test pieces cut out from the urine catching pad, and the urine odor intensity after 1 hour, after 24 hours, and after 48 hours under preservation at 30° C. was evaluated by five panelists based on the six-level odor intensity indication method as described in the item (2) of Reference Example 2.

[3] = 1.6 units/mL enzyme, 37° C., 2 hours, pH 6.8
[4] = 0.01 wt % in reaction solution, 1.6 units/mL enzyme, 37° C., 2 hours, pH 6.8, read-out: Inhibition rate (%) Concentration 0.01%
[5] = 0.1 wt % in reaction solution, 1.6 units/mL enzyme, 37° C., 2 hours, pH 6.8, read-out: Inhibition rate (%) Concentration 0.1%
[6] = 0.01 wt % in reaction solution, 1.6 units/mL enzyme, 37° C., 2 hours, pH 6.8
[7] = 0.1 wt % in reaction solution, 1.6 units/mL enzyme, 37° C., 2 hours, pH 6.8

Compound | Inhibition rate (%) Concentration 0.001% [1, 3] | inhibition at 0.01 wt % [1, 4] | inhibition at 0.1 wt % [1, 5] | Inhibition rate (%) Concentration 0.01% [1, 6] | Inhibition rate (%) Concentration 0.1% [1, 7] | further results
O=C(O)[C@@H](O)[C@H]1OC(=O)[C@H](O)[C@H]1O [D-Glucaro-1,4-lactone, D-glucaro-1,4-lactone, reference compound] | 31.1% | 80.4% | 98% |  |  | Urine odor intensity After 1 hour [2]: 1.6; Urine odor intensity After 24 hours [2]: 1.9; Urine odor intensity After 48 hours [2]: 3.3
O=C1CCCC=CCCCCCCCCCC1 [5-Cyclohexadecen-1-one, 5-cyclohexadecen-1-one] | 65.8% | 93.9% | 98.4% |  |  | 
O=C1CCCCC/C=C\CCCCCCCCO1 [7-Cyclohexadecenolide, 7-cyclohexadecenolide] | 88.1% |  |  | 98.5% | 99.6% | 
CC(C=O)Cc1ccc(C(C)C)cc1 (centres unmarked) [Cyclamen aldehyde, cyclamen aldehyde] | 27.4% |  |  | 82.7% | 87.5% | 
CC(CC=O)CCCC(C)(C)O (centres unmarked) [Hydroxycitronellal, hydroxycitronellal] |  | 24.2% | 85.3% |  |  | 
CC(=O)C1(C)CC2=C(CCCC2(C)C)CC1C (centres unmarked) [Iso E Super, 1,2,3,4,5,6,7,8-octahydro-2,3,8,8-tetramethyl-2-acetonaphthone] |  |  |  | 63.1% | 85.9% | 
CC(C)=CCC/C(C)=C/CO [Geraniol, geraniol] |  | 56.8% | 79.8% |  |  | 
3-methyl-4(5)-cyclopentadecen-1-one | 92.4% |  |  | 99.1% | 98.8% | 
O=C1CCC=CCCCCCCCCCC1 [4-Cyclopentadecen-1-one, 4-cyclopentadecen-1-one] | 67.2% | 93.5% | 99.1% |  |  | 
O=C/C=C/c1ccccc1 [Cinnamic aldehyde, cinnamic aldehyde] | 46.4% |  |  |  |  | inhibition at 0.01 wt % ([1]; 2 h, pH 6.8, read-out: Inhibition rate (%) Concentration 0.01%): 96.8%; inhibition at 0.1 wt % ([1]; 2 h, pH 6.8, read-out: Inhibition rate (%) Concentration 0.1%): 100%
O=CCc1ccccc1 [Phenylacetaldehyde, phenylacetaldehyde] |  | 31.9% | 72.2% |  |  | 
C=CCc1ccc(OC)cc1 [Estragole, estragole] |  | 94.6% | 99.4% |  |  | 
CC1=CC(C)C(C=O)CC1 (centres unmarked) [Ligustral, dimethyltetrahydrobenzaldehyde] |  |  |  | 30.1% | 76.2% | 
C=CC(C)(O)CCC=C(C)C (centres unmarked) [Linalool, linalool] |  | 31.7% | 91% |  |  | 
CC(CCO)CCc1ccccc1 (centres unmarked) [Phenylhexanol, 3-methyl-5-phenyl-1-pentanol] |  | 52.1% | 61.2% |  |  | 
CC/C=C\CCOC(=O)c1ccccc1 [cis-3-Hexenyl benzoate, cis-3-hexenyl benzoate] |  | 45.1% | 80.6% |  |  | 
O=C1CCC=CCCCCCCCCCCO1 [4(5)-Cyclopentadecenolide, 4(5)-cyclopentadecenolide] |  |  |  | 47.1% | 76.5% | 
CC(C)CCOCCc1ccccc1 [Phenylethyl isoamyl ether, phenylethyl isoamyl ether] |  | 60.8% | 88.8% |  |  | 
CCCCCCC#CC(=O)OC [Methyl-2-nonynoate, methyl-2-nonynoate] |  | 95.3% | 98.2% |  |  | 
CC(=O)OCC=Cc1ccccc1 [Cinnamyl acetate, cinnamyl acetate] |  | 51.3% | 96.2% |  |  | 
